A word on the inhibition: it is the drop in the measured response relative to a control, in per cent. A high value points to strong suppression. The term DC50 denotes the concentration giving 50% degradation.

Molecules are shown by their SMILES. The source made the active and inactive calls. The rule behind the calls is not given here. A value given as a limit tells only on which side of the number the result lay.

inhibition, DC50 and Activity data for one compound are collected here from ChEMBL document CHEMBL6121066, “Structure-Activity Relationship Studies of DNA Methyltransferase 1 Monovalent Degraders” (J Med Chem, 2025).

In test [1] the target is Histone-lysine N-methyltransferase, H3 lysine-79 specific (Homo sapiens) (UniProt Q8TEK3). As to the kind of experiment: Inhibition of human DOT1L using oligo nucleosomes and SAM as substrate at 1 uM by radioisotope-based MT HotSpot assay relative to control.
Sequence of Histone-lysine N-methyltransferase, H3 lysine-79 specific (Homo sapiens) (Q8TEK3 whole entry, looked up): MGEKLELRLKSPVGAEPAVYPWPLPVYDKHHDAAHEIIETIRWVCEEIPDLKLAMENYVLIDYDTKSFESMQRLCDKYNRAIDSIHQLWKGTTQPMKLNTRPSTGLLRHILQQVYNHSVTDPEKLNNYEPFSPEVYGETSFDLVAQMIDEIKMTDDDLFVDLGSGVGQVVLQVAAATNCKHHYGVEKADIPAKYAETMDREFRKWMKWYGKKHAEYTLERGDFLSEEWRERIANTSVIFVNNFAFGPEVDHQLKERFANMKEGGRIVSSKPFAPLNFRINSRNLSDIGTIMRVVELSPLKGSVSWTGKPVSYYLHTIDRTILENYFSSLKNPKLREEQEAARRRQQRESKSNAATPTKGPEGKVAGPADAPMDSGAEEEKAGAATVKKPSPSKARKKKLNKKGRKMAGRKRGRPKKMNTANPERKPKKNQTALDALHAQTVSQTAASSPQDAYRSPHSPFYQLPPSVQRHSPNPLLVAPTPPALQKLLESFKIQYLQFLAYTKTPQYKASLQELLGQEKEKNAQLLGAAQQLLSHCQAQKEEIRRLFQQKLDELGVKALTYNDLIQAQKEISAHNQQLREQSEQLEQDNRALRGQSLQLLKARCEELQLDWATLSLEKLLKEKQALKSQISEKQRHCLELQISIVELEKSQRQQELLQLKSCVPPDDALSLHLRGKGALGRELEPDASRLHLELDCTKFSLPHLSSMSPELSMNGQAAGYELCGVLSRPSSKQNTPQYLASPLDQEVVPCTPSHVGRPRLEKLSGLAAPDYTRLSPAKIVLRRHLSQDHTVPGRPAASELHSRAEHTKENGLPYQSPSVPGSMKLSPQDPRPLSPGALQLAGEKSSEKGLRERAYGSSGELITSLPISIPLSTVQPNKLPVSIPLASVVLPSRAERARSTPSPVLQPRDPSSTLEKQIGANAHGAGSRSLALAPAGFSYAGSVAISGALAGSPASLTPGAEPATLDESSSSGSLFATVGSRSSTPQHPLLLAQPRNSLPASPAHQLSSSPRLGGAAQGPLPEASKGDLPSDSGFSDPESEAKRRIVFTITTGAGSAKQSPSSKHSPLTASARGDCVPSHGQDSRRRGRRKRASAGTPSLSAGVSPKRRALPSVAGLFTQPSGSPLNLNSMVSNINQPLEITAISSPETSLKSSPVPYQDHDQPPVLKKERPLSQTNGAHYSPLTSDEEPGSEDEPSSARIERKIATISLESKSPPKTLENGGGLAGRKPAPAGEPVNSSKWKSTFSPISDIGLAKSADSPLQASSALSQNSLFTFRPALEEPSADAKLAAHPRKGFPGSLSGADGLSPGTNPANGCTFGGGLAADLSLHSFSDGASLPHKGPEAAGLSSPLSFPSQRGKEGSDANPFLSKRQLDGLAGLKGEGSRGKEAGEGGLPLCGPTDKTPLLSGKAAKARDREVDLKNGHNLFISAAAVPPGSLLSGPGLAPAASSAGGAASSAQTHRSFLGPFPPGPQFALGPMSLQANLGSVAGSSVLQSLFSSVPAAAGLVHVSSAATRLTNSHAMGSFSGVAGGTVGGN
The target of test [2] is Histone-lysine N-methyltransferase EZH2 (Homo sapiens) (UniProt Q15910). As to the kind of experiment: Inhibition of human EZH2 using core histone and SAM as substrate at 1 uM by radioisotope-based MT HotSpot assay relative to control.
Sequence of Histone-lysine N-methyltransferase EZH2 (Homo sapiens) (Q15910 whole entry, looked up): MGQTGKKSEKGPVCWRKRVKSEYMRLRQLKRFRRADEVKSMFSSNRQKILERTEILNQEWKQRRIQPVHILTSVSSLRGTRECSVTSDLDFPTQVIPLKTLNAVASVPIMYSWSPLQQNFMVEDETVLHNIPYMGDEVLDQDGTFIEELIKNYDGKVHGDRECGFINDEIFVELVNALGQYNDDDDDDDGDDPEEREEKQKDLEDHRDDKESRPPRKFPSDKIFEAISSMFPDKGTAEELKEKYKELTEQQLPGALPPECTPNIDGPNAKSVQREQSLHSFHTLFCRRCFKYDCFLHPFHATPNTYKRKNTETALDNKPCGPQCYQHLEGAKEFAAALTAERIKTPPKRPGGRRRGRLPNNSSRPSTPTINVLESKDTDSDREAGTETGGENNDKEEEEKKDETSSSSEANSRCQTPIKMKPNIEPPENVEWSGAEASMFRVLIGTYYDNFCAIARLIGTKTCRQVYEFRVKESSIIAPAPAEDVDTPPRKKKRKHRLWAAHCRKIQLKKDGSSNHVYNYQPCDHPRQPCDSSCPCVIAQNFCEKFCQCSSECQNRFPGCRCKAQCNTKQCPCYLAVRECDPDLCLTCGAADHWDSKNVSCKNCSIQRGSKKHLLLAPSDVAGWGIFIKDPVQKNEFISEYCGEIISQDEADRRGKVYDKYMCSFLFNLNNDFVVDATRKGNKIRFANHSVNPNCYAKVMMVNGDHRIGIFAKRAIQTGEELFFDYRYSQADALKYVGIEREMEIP
The nature of test [3]: (§1) Induction of molecular glue effect mediated DNMT1 degradation in human HCT-116 cells assessed as reduction in DNMT1 protein level incubated for 24 hrs by Western blot analysis. In kind it is cell-based. Conditions: HCT-116, 24 h. Background: Immunoblotting shows a protein as a band on a membrane.
Test [4] deals with HCT-116. The description is as §1. The format is cell-based.
For test [5], the system named is HCT-116. As to the kind of experiment: Induction of molecular glue effect mediated DNMT1 degradation in human HCT-116 cells assessed as reduction in DNMT1 protein level at 500 nM by Western blot analysis. In kind it is cell-based. Particulars: time 2-24 hrs.
Test [6] has as its system HCT-116. As to the kind of experiment: Induction of molecular glue effect mediated DNMT1 degradation in human HCT-116 cells transfected with WWP1 siRNA assessed as reduction in DNMT1 protein level at 100 nM measured after 24 hrs by Western blot analysis. The format is cell-based.
The subject of test [7] is HCT-116. As to the kind of experiment: Induction of molecular glue effect mediated DNMT1 degradation in human HCT-116 cells assessed as reduction in DNMT1 protein level at 100 nM preincubated with heclin for 2 hrs followed by compound addition and measured after 24 hrs by Western blot analysis. The format is cell-based.
The subject of a further test is NCI-H1299. As to the kind of experiment: Effect on DNMT1 mRNA level in human NCI-H1299 cells at 500 nM incubated for 24 hrs by RT-qPCR analysis. In kind it is functional, cell-based.
Test [8] concerns the target T1, Histone-lysine N-methyltransferase NSD2 (Homo sapiens) (UniProt O96028).
T1 sequence (whole entry): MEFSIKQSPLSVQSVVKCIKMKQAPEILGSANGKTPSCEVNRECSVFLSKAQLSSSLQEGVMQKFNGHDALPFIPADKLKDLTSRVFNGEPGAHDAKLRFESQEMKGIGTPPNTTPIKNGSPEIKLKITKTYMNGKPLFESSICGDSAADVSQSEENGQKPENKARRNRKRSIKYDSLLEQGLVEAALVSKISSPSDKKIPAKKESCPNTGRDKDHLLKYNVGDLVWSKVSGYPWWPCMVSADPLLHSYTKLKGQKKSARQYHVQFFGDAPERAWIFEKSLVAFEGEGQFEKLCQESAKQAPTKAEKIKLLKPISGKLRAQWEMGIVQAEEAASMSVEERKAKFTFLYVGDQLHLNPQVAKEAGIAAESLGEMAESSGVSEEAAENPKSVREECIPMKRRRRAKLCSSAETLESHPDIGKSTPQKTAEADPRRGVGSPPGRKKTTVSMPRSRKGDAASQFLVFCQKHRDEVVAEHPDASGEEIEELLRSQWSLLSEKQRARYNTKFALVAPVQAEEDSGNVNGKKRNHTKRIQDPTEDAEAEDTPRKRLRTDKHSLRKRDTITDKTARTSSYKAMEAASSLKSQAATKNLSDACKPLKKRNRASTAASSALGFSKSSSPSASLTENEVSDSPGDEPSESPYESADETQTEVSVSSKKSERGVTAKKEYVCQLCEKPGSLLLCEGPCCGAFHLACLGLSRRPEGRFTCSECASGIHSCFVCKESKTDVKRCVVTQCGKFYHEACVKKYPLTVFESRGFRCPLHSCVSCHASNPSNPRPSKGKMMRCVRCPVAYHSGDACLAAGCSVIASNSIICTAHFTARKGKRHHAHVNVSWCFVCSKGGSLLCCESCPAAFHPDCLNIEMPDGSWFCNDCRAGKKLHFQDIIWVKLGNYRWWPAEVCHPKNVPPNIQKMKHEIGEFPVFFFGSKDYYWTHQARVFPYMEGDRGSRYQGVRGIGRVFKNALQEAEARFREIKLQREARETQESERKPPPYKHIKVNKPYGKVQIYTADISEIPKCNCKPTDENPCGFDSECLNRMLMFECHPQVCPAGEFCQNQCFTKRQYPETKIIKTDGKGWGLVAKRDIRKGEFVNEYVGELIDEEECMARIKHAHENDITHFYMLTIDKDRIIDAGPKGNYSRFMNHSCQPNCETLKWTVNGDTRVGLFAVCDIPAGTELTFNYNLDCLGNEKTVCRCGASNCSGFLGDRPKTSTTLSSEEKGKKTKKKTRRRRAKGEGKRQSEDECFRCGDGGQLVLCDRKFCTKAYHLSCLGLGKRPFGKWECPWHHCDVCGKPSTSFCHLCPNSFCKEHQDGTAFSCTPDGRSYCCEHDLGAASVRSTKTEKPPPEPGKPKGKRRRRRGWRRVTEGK
As to the kind of experiment: Inhibition of human NSD2 using nucleosomes and SAM as substrate at 1 uM by radioisotope-based MT HotSpot assay relative to control.

For `CCc1c(C#N)c(SC(C(N)=O)c2ccccc2)nc(N(C)CC(=O)NC)c1C#N` (centres undefined), the inhibition in [1], in test [2] and in test [8] was less than 20% throughout. For the same compound, in [3], the DC50 was 0.035 µM. The Activity result was “Dose-dependent-effect” with HCT-116 [4], “Time-dependent-effect” with HCT-116 [5] and “Not active; Partial Rescue Of Degradation Observed” in the test on HCT-116 [7]. In the test on HCT-116 [6], the result was Active. Also, in the test on NCI-H1299, the outcome was inactive.
